Assay results: patent EP0589484A1, “1,2-Ethanediol derivative and salt thereof, process for producing the same, and cerebral function-improving agent comprising the same” (TOYAMA CHEMICAL CO., LTD., priority 1989, dated 1990)
Counter-ions that a name gives are not always drawn. Like-named read-outs stand apart in the source and are kept apart here.

Key:
[1] = system: ddY female mouse; assay: Effect of test compound on hypoxia (antihypoxic activity); format: in vivo; settings: po, read-out: Antihypoxic activity (%)
Procedure: A test compound dissolved in physiological saline (100 mg/kg) was orally administered to a ddY female mouse (5-6 weeks old, each group consisting of 10 mice). After 1 (or 30 minutes*) hour from the administration, each mouse was placed in a 300-ml glass chamber, and a gas mixture consisting of 4% of oxygen and 96% of nitrogen was passed through the chamber at a rate of 5 liters/min. A time from the start of gas passing to the death of each mouse was measured.
To a control mice group was orally administered only physiological saline.
The antihypoxic activity of the test compound was calculated from the following formula: [formula]

[2] = system: ddY male mice; assay: Acute toxicity; format: in vivo, mouse; settings: 50 mg/kg intravenously, group of 3 ddY male mice
Excerpt: A test compound dissolved in physiological saline was intravenously administered to a group of 3 ddY male mice (5-6 weeks old) to examine the acute toxicity of the test compound.

[3] = target: T1, acetylcholinesterase (Mus musculus, UniProt P21836); assay: Inhibitory activity for acetylcholinesterase (method of Ellman et al.); format: biochemical; settings: final concentration of the test compound 10 µg/ml; mouse cerebral homogenate; read-out: Inhibition (%)
T1 construct: a mouse cerebral homogenate (as an acetylcholinesterase source); from tissue; host or cells: mouse cerebrum (homogenate)
T1 sequence (P21836 32-614): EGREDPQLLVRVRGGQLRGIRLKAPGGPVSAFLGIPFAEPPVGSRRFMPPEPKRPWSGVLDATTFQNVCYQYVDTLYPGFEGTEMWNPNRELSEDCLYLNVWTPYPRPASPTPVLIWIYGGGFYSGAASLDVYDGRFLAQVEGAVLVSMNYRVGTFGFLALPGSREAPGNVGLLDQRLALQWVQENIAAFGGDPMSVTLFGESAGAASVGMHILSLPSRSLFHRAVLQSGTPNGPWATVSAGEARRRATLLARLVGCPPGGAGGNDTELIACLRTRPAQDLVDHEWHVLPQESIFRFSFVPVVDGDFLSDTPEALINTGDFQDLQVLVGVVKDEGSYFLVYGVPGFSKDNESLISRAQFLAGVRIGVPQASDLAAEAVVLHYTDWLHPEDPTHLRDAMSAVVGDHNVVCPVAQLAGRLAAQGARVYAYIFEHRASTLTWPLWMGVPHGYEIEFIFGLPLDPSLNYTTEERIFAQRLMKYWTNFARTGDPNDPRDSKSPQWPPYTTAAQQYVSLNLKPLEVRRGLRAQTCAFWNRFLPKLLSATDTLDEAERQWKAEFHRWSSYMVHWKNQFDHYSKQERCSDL
Procedure: A test was conducted in accordance with the method of Ellman et al. [Biochem. Pharmacol., vol. 7, pp. 88-95, 1961].
That is, acetylthiocholine (as a substrate) was added to a phosphate buffer solution containing 5,5'-dithiobis-(2-nitrobenzoic acid) (DTNB), a test compound and a mouse cerebral homogenate (as an acetylcholinesterase source). The resulting mixture was incubated, and the amount of the resulting 5-thio-2-nitrobenzoic acid was photometrically measured at 412 nm.
The inhibitory activity for acetylcholinesterase of the test compound was expressed by the inhibition (%) when the final concentration of the test compound was 10 µg/ml.

[4] = 0.5 h, 100 mg/kg orally, placed in chamber (4% oxygen, 96% nitrogen) after 30 minutes from the administration (values marked *), survival time relative to control
[5] = 100 mg/kg orally, placed in chamber (4% oxygen, 96% nitrogen) after 1 hour from the administration, survival time relative to control

Structure (SMILES): O[C@H](COC[C@H]1CNCCO1)c1ccccc1 [compound 220, (1S,2'R)-1-phenyl-2-[(morpholin-2-yl)methoxy]ethanol maleate]
- response vs control in vivo at 100 mg/kg [1, 4]: 183%
- Acute toxicity [2]: no death case

Structure (SMILES): O[C@@H](COC[C@H]1CNCCO1)c1ccccc1 [compound 221, (1R,2'R)-1-phenyl-2-[(morpholin-2-yl)methoxy]ethanol oxalate]
- response vs control in vivo at 100 mg/kg [1, 4]: 183%
- Acute toxicity [2]: no death case

Structure (SMILES): CN(C)CCOCC(O)c1ccc2ccccc2c1.Cl (centres unmarked) [compound 229, 2-[2-(N,N-dimethylamino)ethoxy]-1-(2-naphthyl)ethanol hydrochloride]
- response vs control in vivo at 100 mg/kg ([1]; 1 h): 123%
- Acute toxicity [2]: no death case

Structure (SMILES): CN(C)CCCOCC(O)c1cccc2ccccc12 (centres unmarked) [compound 233]
- inhibition at 10 µg/mL [3]: 59%

Structure (SMILES): Cc1ccc2cc(C(O)COCCN(C)C)ccc2c1 (centres unmarked) [compound 235]
- Acute toxicity [2]: no death case

Structure (SMILES): COc1ccc2cc(C(O)COCCN(C)C)ccc2c1 (centres unmarked) [compound 236]
- response vs control in vivo at 100 mg/kg [1, 5]: 177%
- Acute toxicity [2]: no death case

Structure (SMILES): CN(CCOCC(O)c1cccc2ccccc12)Cc1ccccc1 (centres unmarked) [compound 241]
- inhibition at 10 µg/mL [3]: 31%

Structure (SMILES): CN(C)CCOCC(O)c1ccc2c(c1)CCCC2 (centres unmarked) [compound 251]
- response vs control in vivo at 100 mg/kg [1, 4]: 186%
- Acute toxicity [2]: no death case

Structure (SMILES): OC(COCC1CNCCO1)c1ccc2ccccc2c1 (centres unmarked) [compound 256, 1-(2-naphthyl)-2-[(morpholin-2-yl)methoxy]ethanol 1/2 fumarate]
- response vs control in vivo at 100 mg/kg [1, 5]: 154%
- Acute toxicity [2]: no death case

Structure (SMILES): OC(COCc1cnc[nH]1)c1cccc2ccccc12 (centres unmarked) [compound 279]
- response vs control in vivo at 100 mg/kg [1, 5]: 198%
- Acute toxicity [2]: no death case

Structure (SMILES): Cn1cncc1COCC(O)c1cccc2ccccc12 (centres unmarked) [compound 283, 2-(1-methylimidazol-5-yl)methoxy-1-(1-naphthyl)ethanol]
- response vs control in vivo at 100 mg/kg [1, 5]: 183%
- Acute toxicity [2]: no death case

Structure (SMILES): CN(C)CCOCC(O)c1ccc2sccc2c1.Cl (centres unmarked) [compound 312, 1-(benzo[b]thiophen-5-yl)-2-[2-(N,N-dimethylamino)ethoxy]ethanol hydrochloride]
- response vs control in vivo at 100 mg/kg ([1]; 0.5 h): 221%
- Acute toxicity [2]: no death case

Structure (SMILES): CN(C)CCOCC(O)c1cccs1 (centres unmarked) [compound 313]
- response vs control in vivo at 100 mg/kg [1, 4]: 154%
- Acute toxicity [2]: no death case

Structure (SMILES): CN(C)CCOCC(O)c1cccnc1 (centres unmarked) [compound 315]
- Acute toxicity [2]: no death case

Structure (SMILES): CN(C)CCOCC(O)c1ccoc1 (centres unmarked) [compound 316]
- Acute toxicity [2]: no death case

Structure (SMILES): CN(C)CCOCC(O)c1ccc2c(c1)CC(=O)N2 (centres unmarked) [compound 322]
- inhibition at 10 µg/mL [3]: 20%

Structure (SMILES): CN(C)CCOCC(O)c1ccc2occc2c1 (centres unmarked) [compound 325]
- response vs control in vivo at 100 mg/kg [1, 4]: 217%
- Acute toxicity [2]: no death case

Structure (SMILES): OC(COCCN1CCOCC1)c1ccc2sccc2c1 (centres unmarked) [compound 327]
- response vs control in vivo at 100 mg/kg [1, 4]: 160%
- Acute toxicity [2]: no death case

Structure (SMILES): CN(C)CCOCC(O)c1ccc2c(c1)CCN2 (centres unmarked) [compound 329]
- inhibition at 10 µg/mL [3]: 45%

Structure (SMILES): CN(C)CCCCOCC(O)c1ccc2sccc2c1 (centres unmarked) [compound 337]
- response vs control in vivo at 100 mg/kg [1, 4]: 309%
- Acute toxicity [2]: no death case

Structure (SMILES): O=C1CCc2cc(C(O)COCc3cccnc3)ccc2N1 (centres unmarked) [compound 341]
- inhibition at 10 µg/mL [3]: 61%

Structure (SMILES): OC(COCCN1CCN(c2ncccn2)CC1)c1ccc2sccc2c1 (centres unmarked) [compound 352]
- inhibition at 10 µg/mL [3]: 26%

Structure (SMILES): Cl.O=C(NCCOCC(O)c1ccc2sccc2c1)c1cccnc1 (centres unmarked) [compound 360, 1-(benzo[b]thiophen-5-yl)-2-[2-(nicotinoylamino)ethoxy]ethanol hydrochloride]
- Acute toxicity [2]: no death case

Structure (SMILES): CN(C)CCOCC(O)c1ccc(Cl)s1 (centres unmarked) [compound 368]
- response vs control in vivo at 100 mg/kg [1, 4]: 135%
- Acute toxicity [2]: no death case

Structure (SMILES): NCCOCC(O)c1ccc2occc2c1 (centres unmarked) [compound 369]
- response vs control in vivo at 100 mg/kg [1, 4]: 143%
- Acute toxicity [2]: no death case

Structure (SMILES): CN(C)CCOCC(O)c1nccn1Cc1ccccc1 (centres unmarked) [compound 372]
- inhibition at 10 µg/mL [3]: 30%

Structure (SMILES): CNCCOCC(O)c1cc2ccccc2s1 (centres unmarked) [compound 375]
- response vs control in vivo at 100 mg/kg [1, 4]: 156%
- Acute toxicity [2]: no death case

Structure (SMILES): Cc1ccc2sc(C(O)COCCN(C)C)cc2c1 (centres unmarked) [compound 385]
- response vs control in vivo at 100 mg/kg [1, 4]: 161%
- Acute toxicity [2]: no death case

Structure (SMILES): CN(C)CCCOCC(O)c1ccc2occc2c1 (centres unmarked) [compound 390]
- response vs control in vivo at 100 mg/kg [1, 4]: 248%
- Acute toxicity [2]: no death case
